Holding throughout (assay type): cell-based
The subject of assay [1] is Staphylococcus aureus MSQS (methicillin sensitive and quinolone sensitive). Description: MIC, agar dilution, staphylococci. Conditions: inoculum 10^4 CFU/spot, 37° C., 24 hours. As for the experimental part: (§1) The following results were obtained on a standard in-vitro test system. The activity is described in terms of the minimum inhibitory concentration (MIC) determined by the agar-dilution technique with an inoculum size of 10^4 CFU/spot. Typically, compounds are active in the range 0.01 to 256 μg/ml.
(§2) Staphylococci were tested on agar, using an inoculum of 10^4 CFU/spot and an incubation temperature of 37° C. for 24 hours—standard test conditions for the expression of methicillin resistance.

The test system of assay [2] is Staphylococcus aureus MRQR (methicillin resistant and quinolone resistant). Description: MIC, agar dilution, staphylococci. Particulars: inoculum 10^4 CFU/spot, 37° C., 24 hours. On the procedure: as §1, §2
The next assay concerns Haemophilus influenzae. The assay is described as follows: MIC, Mueller-Hinton broth with hemin and NAD, fastidious Gram negative organisms. Particulars: aerobic, 24 hours, 37° C., 5×10^4 CFU/well. On the procedure:
as §1
(§3) Streptococci and enterococci were tested on agar supplemented with 5% defibrinated horse blood, an inoculum of 10^4 CFU/spot and an incubation temperature of 37° C. in an atmosphere of 5% carbon dioxide for 48 hours—blood is required for the growth of some of the test organisms. Fastidious Gram negative organisms were tested in Mueller-Hinton broth, supplemented with hemin and NAD, grown aerobically for 24 hours at 37° C., and with an innoculum of 5×10^4 CFU/well.

For a further assay, the system named is Moraxella catarrhalis. Described as above. Particulars: aerobic, 24 hours, 37° C., 5×10^4 CFU/well. On the procedure:
as §1, §3

The test system of the next assay is Streptococcus pyogenes. The assay is described as follows: MIC, agar with 5% defibrinated horse blood, streptococci. Particulars: 10^4 CFU/spot, 37° C., 5% carbon dioxide, 48 hours. As for the experimental part:
as §1, §3

A further assay deals with Streptococcus pneumoniae. The description is as above. Particulars: 10^4 CFU/spot, 37° C., 5% carbon dioxide, 48 hours. On the procedure:
as §1, §3

Structures are written as SMILES. In brackets after ≈: the same amount, converted by molar mass.

With `N#Cc1nnc(-c2ccc(N3C[C@H](Cn4ccnn4)OC3=O)cc2F)s1` [Example 1, (5R)-3-(3-Fluoro-4-(5-cyano-1,3,4-thiadiazol-2-yl)phenyl)-5-(1H-1,2,3-triazol-1-ylmethyl)-1,3-oxazolidin-2-one], the MIC in assay [1] was 0.125 µg/mL (≈ 0.337 µM); in assay [2] it was 0.25 µg/mL (≈ 0.673 µM); against Haemophilus influenzae, 2 µg/mL (≈ 5.39 µM); with Moraxella catarrhalis, 0.5 µg/mL (≈ 1.35 µM); in the assay with Streptococcus pyogenes, 0.125 µg/mL (≈ 0.337 µM); in the assay with Streptococcus pneumoniae, 0.125 µg/mL (≈ 0.337 µM).

For the origin of these results see patent US20050043374A1, “Aryl substituted oxazolidinones with antibacterial activity” (priority 2001, published 2005).
